Tested on: STAT5 phosphorylation downstream of JAK3 in human YT cells
Assay: pSTAT5 cell assay (IL-2 stimulated YT cells, AlphaScreen)
Type: cell-based
Conditions: IL-2 stimulation, read-out: Inhibition values (IC50) pSTAT5
Description: STAT5 phosphorylation represents one of the proximal events in the signalling cascade downstream of JAK3 activation. Therefore STAT5 phosphorylation is an appropriate readout to assess the mechanistic effect of JAK3 inhibition. Stimulation of human YT cells, an NK-like cell line, with interleukin-2 (IL-2) results in phosphorylation of STAT5 at tyrosine residue 694 (Tyr694) that can be quantitatively measured by immunodetection with specific antibodies and an appropriate detection method, in this case AlphaScreen assay technology.
Human YT cells were grown in RPMI medium (Lonza, BE12-167) with 2 mM L-Glutamine (Invitrogen, 25030-024) and 10% heat-inactivated FBS (Invitrogen, 10106-169) and kept in a humidified incubator (37° C., 5% CO2). Cells were harvested by centrifugation, washed once with HBSS (Invitrogen, 14180-046), resuspended in HBSS at 1.5×10^6 cells/ml and 0.9×10^4 cells were seeded in 6 μl per well in a 96 well White plate (PerkinElmer, 6005569).
Test compounds were dissolved in DMSO and a 1:3 dilution series (9 steps) was prepared. To generate a dose response curve, 3 μl of fourfold concentrated compound in 4% DMSO/HBSS were added to each cell sample in the 96 well plate resulting in a final DMSO concentration of 1% DMSO. Cells were incubated for one hour in a humidified incubator (37° C., 5% CO2). To each well 3 μl of a fourfold concentrated IL-2 solution (Recombinant human IL-2, Peprotech 200-02; 120 nM solution in HBSS) was added and incubated for 30 minutes at room temperature. Cells were lysed by adding 3 μl of 5× lysis buffer (SureFire lysis buffer; Perkin Elmer, TGRS5S10K) and incubated for 10 minutes at room temperature with gentle shaking
For signal detection by AlphaScreen® technology the SureFire phospho-STAT5 (Tyr694/Tyr699) kit was used according to instructions provided by the manufacturer (Perkin Elmer, TGRS5S10K). Acceptor beads were added as recommended by the manufacturer (Reactivation buffer/Activation buffer/Acceptor beads at a ratio of 40:10:1) and incubated at room temperature for 1.5 hours with gentle shaking Then donor beads were added as recommended (Dilution buffer/Donor beads at a ratio of 20:1) and incubated at room temperature for 1.5 hours with gentle shaking Plates were read on an Envision instrument (Perkin Elmer) with the AlphaScreen protocol. Data were analysed in BioAssay using the nonlinear regression for a sigmoidal dose-response with a variable slope.

| Compound | IC50 |
| --- | --- |
| OC[C@@H](Nc1nc(Nc2cnn(CC(F)F)c2)ncc1Cl)c1ccccc1F [Compound 165] | < 250 nM |
| OCCn1cc(Nc2ncc(Cl)c(N[C@H](CO)c3ccccc3)n2)cn1 [Compound 9] | 250 to 1000 nM |
| Cn1cc(Nc2ncc(Cl)c(N[C@H](CO)c3ccccc3)n2)cn1 [Compound 4] | 250 to 1000 nM |
